Drawing on US20090036448A1, “PYRIMIDINE DERIVATIVES AND METHODS OF TREATMENT RELATED TO THE USE THEREOF” (TAISHO PHARMECUTICAL CO., LTD., priority 2004, published 2009), this text covers IC50 and class for 23 molecules.

Where a name gives a salt, the structure may show the parent alone.

In test [1] the target is T1, MCH receptor (Homo sapiens, UniProt Q99705). Description: FLIPR/FDSS6000 functional assay: intracellular Ca2+ changes evoked by MCH. The class given is cell-based. Conditions: class by percent of control at 10^−7 M or by IC50; antagonist activity, 50 nM of MCH; read-out: class. An excerpt: Subsequently, a functional based assay was used to confirm the lead hits, referred to as FLIPR™ (the Fluorometric Imaging Plate Reader) and FDSS6000™ (Functional Drug Screening System). This assay utilized a non-endogenous, constitutively active version of the MCH receptor.
The FLIPR and FDSS assays are able to detect intracellular Ca^2+ concentration in cells, which can be utilized to assess receptor activation and determine whether a candidate compound is an, for example, antagonist, inverse agonist or agonist to a Gq-coupled receptor. The concentration of free Ca^2+ in the cytosol of any cell is extremely low, whereas its concentration in the extracellular fluid and endoplasmic reticulum (ER) is very high. Thus, there is a large gradient tending to drive Ca^2+ into the cytosol across both the plasma membrane and ER. The FLIPR™ and FDSS6000™ systems (Molecular Devices Corporation, HAMAMATSU Photonics K.K.) are designed to perform functional cell-based assays, such as the measurement of intracellular calcium for high-throughput screening. The measurement of fluorescent is associated with calcium release upon activation of the Gq-coupled receptors.
Fluorometric Imaging Plate Reader system was used to allow for rapid, kinetic measurements of intracellular fluorescence in 96 well microplates (or 384 well microplates). Simultaneous measurements of fluorescence in all wells can be made by FLIPR or FDSS6000™ every second with high sensitivity and precision. These systems are ideal for measuring cell-based functional assays such as monitoring the intracellular calcium fluxes that occur within seconds after activation of the Gq coupled receptor.
Briefly, the cells are seeded into 96 well at 5.5×10^4 cells/well with complete culture media (Dulbecco's Modified Eagle Medium with 10% fetal bovine serum, 2 mM L-glutamine, 1 mM sodium pyruvate and 0.5 mg/mL G418, pH 7.4) for the assay next day. On the day of assay, the media is removed and the cells are incubated with 100 μl of loading buffer (4 μM Fluo-4-AM in complete culture media containing 2.5 mM Probenicid, 0.5 mg/ml and 0.2% bovine serum albumin) in 5% CO2 incubator at 37° C. for 1 hr. The loading buffer is removed, and the cells are washed with wash buffer (Hank's Balanced Salt Solution containing 2.5 mM Probenicid, 20 mM HEPES, 0.5 mg/mL and 0.2% bovine serum albumin, pH 7.4). One hundred fifty μl of wash buffer containing various concentrations of test compound is added to the cells, and the cells are incubated in 5% CO2 incubator at 37° C. for 30 min. Fifty μl of wash buffer containing various concentration of MCH are added to each well, and transient changes in [Ca^2+]i evoked by MCH are monitored using the FLIPR or FDSS in 96 well plates at Ex. 488 nm and Em. 530 nm for 290 second. When antagonist activity of compound is tested, 50 nM of MCH is used.
Use of FLIPR™ and FDSS6000™ can be accomplished by following manufacturer's instruction (Molecular Device Corporation and HAMAMATSU Photonics K.K.).

Test [2] has as its target T1, MCH receptor. Description: Receptor binding assay with Radiolabelled MCH Ligand. Also noted: expressed in transfected cells; host or cells: 293 cells (human kidney, ATCC), transient transfection; crude membranes. To be noted: class by percent of control at 10^-7 M or IC50. The method in brief:
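This was a filtration radioligand displacement assay: compounds, first tested at 1 and 0.1 μM and then over a range, inhibited binding of a labelled MCH ligand to transfected 293-cell membranes at room temperature for 60–120 min. Specific binding excluded a cold-MCH nonspecific signal. Ki was derived from IC50 via Cheng-Prusoff, using an independently measured KD.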

T1 sequence (Q99705 whole entry): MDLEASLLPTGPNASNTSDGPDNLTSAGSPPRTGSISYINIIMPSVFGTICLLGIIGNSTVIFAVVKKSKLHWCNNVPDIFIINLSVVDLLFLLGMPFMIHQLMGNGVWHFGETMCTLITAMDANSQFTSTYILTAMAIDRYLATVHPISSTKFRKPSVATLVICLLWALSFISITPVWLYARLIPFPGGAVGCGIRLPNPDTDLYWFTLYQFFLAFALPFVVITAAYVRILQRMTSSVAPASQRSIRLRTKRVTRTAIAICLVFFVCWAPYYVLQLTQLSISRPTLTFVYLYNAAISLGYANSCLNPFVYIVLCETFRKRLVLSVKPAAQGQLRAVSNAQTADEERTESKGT

For `Cc1nc(N[C@H]2CC[C@@H](NC(=O)c3cccc(OC(F)(F)F)c3)CC2)cc(N(C)C)n1` [Example 18, N-(cis-4-{[6-(Dimethylamino)-2-methylpyrimidin-4-yl]amino}cyclohexyl)-3-(trifluoromethoxy)benzamide hydrochloride], in test [1], the IC50 was below 50 nM.
On to `Cc1nc(N[C@H]2CC[C@@H](NC(=O)c3ccc(F)c(F)c3)CC2)cc(N(C)C)n1` [Example 5, N-(cis-4-{[6-(Dimethylamino)-2-methylpyrimidin-4-yl]amino}cyclohexyl)-3,4-difluorobenzamide hydrochloride], for which the IC50 in test [1] is below 50 nM.
`Cc1nc(N[C@H]2CC[C@@H](NC(=O)c3cc(Cl)cc(Cl)c3)CC2)cc(N(C)C)n1` [Example 21, 3,5-Dichloro-N-(cis-4-{[6-(dimethylamino)-2-methylpyrimidin-4-yl]amino}cyclohexyl)-benzamide hydrochloride]: the IC50 in test [1] was below 50 nM.
Still for that read-out and setting: the same measure for `Cc1nc(N[C@H]2CC[C@@H](NC(=O)c3cc(F)c(F)c(F)c3)CC2)cc(N(C)C)n1` [Example 11, N-(cis-4-{[6-(Dimethylamino)-2-methylpyrimidin-4-yl]amino}cyclohexyl)-3,4,5-trifluorobenzamide hydrochloride]: below 50 nM; for `CN(C)c1cc(N[C@H]2CC[C@@H](NC(=O)c3ccc(F)c(Cl)c3)CC2)nc(-c2ccccc2)n1` [Example 178, 3-Chloro-N-(cis-4-{[6-(dimethylamino)-2-phenylpyrimidin-4-yl]amino}cyclohexyl)-4-fluorobenzamide hydrochloride]: above 200 nM; for `O=C(N[C@H]1CC[C@@H](Nc2ncnc3[nH]ccc23)CC1)c1ccc(F)c(Cl)c1` [Example 186, 3-Chloro-4-fluoro-N-[cis-4-(7H-pyrrolo[2,3-d]pyrimidin-4-ylamino)cyclohexyl]benzamide hydrochloride]: above 200 nM.
On the same count and under the same terms, the figure for `Cc1nc(N[C@H]2CC[C@@H](C(=O)Nc3cc(F)c(F)c(F)c3)CC2)cc(N(C)C)n1` [Example 193, cis-4-{[6-(Dimethylamino)-2-methylpyrimidin-4-yl]amino}-N-(3,4,5-trifluorophenyl)-cyclohexanecarboxamide hydrochloride] is below 50 nM; for `Cc1cc(N[C@H]2CC[C@@H](NC(=O)c3ccc(F)c(Cl)c3)CC2)nc(C)n1` [Example 171, 3-Chloro-N-{cis-4-[(2,6-dimethylpyrimidin-4-yl)amino]cyclohexyl}-4-fluorobenzamide hydrochloride] it is above 200 nM.
With `CNc1cc(N[C@H]2CC[C@@H](NC(=O)c3ccc(F)c(F)c3)CC2)nc(C)n1` [Example 30, 3,4-Difluoro-N-(cis-4-{[2-methyl-6-(methylamino)pyrimidin-4-yl]amino}cyclohexyl)-benzamide hydrochloride], in test [1], the IC50 is above 200 nM.
On the same count and under the same terms, the same measure for `Cc1nc(N[C@H]2CC[C@@H](NC(=O)c3cc(F)cc(C(F)(F)F)c3)CC2)cc(N(C)C)n1` [Example 26, N-(cis-4-{[6-(Dimethylamino)-2-methylpyrimidin-4-yl]amino}cyclohexyl)-3-fluoro-5-(trifluoromethyl)benzamide hydrochloride]: 50 to 200 nM; for `Cc1nc(N[C@H]2CC[C@@H](NC(=O)c3ccc(F)c(Cl)c3)CC2)cc(N2CCN(C)CC2)n1` [Example 41, 3-Chloro-4-fluoro-N-(cis-4-{[2-methyl-6-(4-methylpiperazin-1-yl)pyrimidin-4-yl]amino}-cyclohexyl)benzamide dihydrochloride]: above 200 nM; for `CN(C)c1cc(N[C@H]2CC[C@@H](NC(=O)c3ccc(F)c(Cl)c3)CC2)nc(Cc2ccccc2)n1` [Example 179, N-(cis-4-{[2-Benzyl-6-(dimethylamino)pyrimidin-4-yl]amino}cyclohexyl)-3-chloro-4-fluorobenzamide hydrochloride]: below 50 nM.
Consider `CN(C)c1cc(N[C@H]2CC[C@@H](NCc3ccc(Br)cc3OC(F)(F)F)CC2)ncn1` [Example 1, N′-(cis-4-{[4-Bromo-2-(trifluoromethoxy)benzyl]amino}cyclohexyl)-N,N-dimethylpyrimidine-4,6-diamine dihydrochloride], for which the IC50 in test [1] is above 200 nM.
On to `Cc1nc(N[C@H]2CC[C@@H](NC(=O)c3ccc(Cl)cc3)CC2)cc(N(C)C)n1` [Example 25, 4-Chloro-N-(cis-4-{[6-(dimethylamino)-2-methylpyrimidin-4-yl]amino}cyclohexyl)-benzamide hydrochloride], for which the IC50 in test [1] was 50 to 200 nM.
For the molecule `Cc1nc(N[C@H]2CC[C@@H](NC(=O)c3ccc(F)c(Cl)c3)CC2)cc(N2CCOCC2)n1` [Example 39, 3-Chloro-4-fluoro-N-{cis-4-[(2-methyl-6-morpholin-4-ylpyrimidin-4-yl)amino]cyclohexyl}-benzamide hydrochloride], in test [1], the IC50 was 50 to 200 nM.
On the same count and under the same terms, the figure for `Cc1nc(N[C@H]2CC[C@@H](NC(=O)c3ccccc3F)CC2)cc(N(C)C)n1` [Example 22, N-(cis-4-{[6-(Dimethylamino)-2-methylpyrimidin-4-yl]amino}cyclohexyl)-2-fluorobenzamide hydrochloride] is above 200 nM; for `CN(C)c1cc(NC[C@H]2CC[C@@H](NC(=O)c3ccc(F)c(F)c3)CC2)ncn1` [Example 3, N-[cis-4-({[6-(Dimethylamino)pyrimidin-4-yl]amino}methyl)cyclohexyl]-3,4-difluorobenzamide hydrochloride] it is above 200 nM; for `CN(C)c1cc(N[C@H]2CC[C@@H](NC(=O)c3ccc(F)c(Cl)c3)CC2)nc(C(F)(F)F)n1` [Example 47, 3-Chloro-N-(cis-4-{[6-(dimethylamino)-2-(trifluoromethyl)pyrimidin-4-yl]amino}cyclohexyl)-4-fluorobenzamide hydrochloride] it is above 200 nM.
Take `Cn1ccc2c(N[C@H]3CC[C@@H](NC(=O)c4ccc(F)c(Cl)c4)CC3)ncnc21` [Example 187, 3-Chloro-4-fluoro-N-{cis-4-[(7-methyl-7H-pyrrolo[2,3-d]pyrimidin-4-yl)amino]cyclohexyl}-benzamide hydrochloride]: the IC50 in test [1] lay within 50 to 200 nM.
Same read-out and setting: the figure for `Cc1nc(N[C@H]2CC[C@@H](C(=O)Nc3cc(Cl)cc(Cl)c3)CC2)cc(N(C)C)n1` [Example 195, cis-N-(3,5-Dichlorophenyl)-4-{[6-(dimethylamino)-2-methylpyrimidin-4-yl]amino}-cyclohexanecarboxamide hydrochloride] is above 200 nM.
Same read-out and setting: the figure for `CN(CCO)c1nccc(N[C@H]2CC[C@@H](NC(=O)c3ccc(F)c(F)c3)CC2)n1` [Example 36, 3,4-Difluoro-N-[cis-4-({2-[(2-hydroxyethyl)(methyl)amino]pyrimidin-4-yl}amino)-cyclohexyl]benzamide hydrochloride] is above 200 nM.
Turning to `Cc1nc(N[C@H]2CC[C@@H](NC(=O)c3ccc(C(F)(F)F)c(F)c3)CC2)cc(N(C)C)n1` [Example 15, N-(cis-4-{[6-(Dimethylamino)-2-methylpyrimidin-4-yl]amino}cyclohexyl)-3-fluoro-4-(trifluoromethyl)benzamide hydrochloride], the IC50 in test [1] is above 200 nM.
On to `COC(=O)c1csc(S(=O)(=O)N[C@H]2CC[C@@H](Nc3cc(N(C)C)nc(C)n3)CC2)c1OC` [compound 518], for which, in test [2], the class was 3 (Class 3: The value of percent of control at 10^−7 M was more than 60% or the value of IC50 was more than 200 nM.).
